Measured values: publication PMC10562900 (RSC Advances, 2023)

Columns and labels:
MCF-7 = conditions: read-out: IC50 (cell viability); cited from earlier work
r-e5′NT [1] = target: T1, r-e5′NT (Rattus norvegicus, UniProt P21588); assay: CD73; assay type: biochemical; conditions: for inhibition at 100 µM: read-out: inhibition% r-e5′NT
T1 sequence (P21588 29-576): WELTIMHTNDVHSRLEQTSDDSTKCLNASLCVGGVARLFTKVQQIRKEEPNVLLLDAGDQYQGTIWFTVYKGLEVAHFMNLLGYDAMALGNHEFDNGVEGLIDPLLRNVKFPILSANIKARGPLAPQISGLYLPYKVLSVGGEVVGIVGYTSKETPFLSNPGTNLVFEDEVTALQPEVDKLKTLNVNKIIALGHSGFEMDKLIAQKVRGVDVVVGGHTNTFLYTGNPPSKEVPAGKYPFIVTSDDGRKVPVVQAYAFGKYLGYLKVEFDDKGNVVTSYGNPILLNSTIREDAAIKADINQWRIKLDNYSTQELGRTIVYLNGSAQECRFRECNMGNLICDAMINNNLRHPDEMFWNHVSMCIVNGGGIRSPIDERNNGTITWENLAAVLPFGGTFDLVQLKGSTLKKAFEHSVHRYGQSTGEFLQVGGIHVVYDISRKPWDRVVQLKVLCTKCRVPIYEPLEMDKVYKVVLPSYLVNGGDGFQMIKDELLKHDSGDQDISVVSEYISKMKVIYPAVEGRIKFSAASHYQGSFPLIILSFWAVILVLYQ

h-e5′NT [2] = target: T2, h-e5′NT (Homo sapiens, UniProt P21589); assay: CD73; assay type: biochemical; conditions: for inhibition at 100 µM: read-out: inhibition% h-e5′NT
T2 sequence (P21589 27-574): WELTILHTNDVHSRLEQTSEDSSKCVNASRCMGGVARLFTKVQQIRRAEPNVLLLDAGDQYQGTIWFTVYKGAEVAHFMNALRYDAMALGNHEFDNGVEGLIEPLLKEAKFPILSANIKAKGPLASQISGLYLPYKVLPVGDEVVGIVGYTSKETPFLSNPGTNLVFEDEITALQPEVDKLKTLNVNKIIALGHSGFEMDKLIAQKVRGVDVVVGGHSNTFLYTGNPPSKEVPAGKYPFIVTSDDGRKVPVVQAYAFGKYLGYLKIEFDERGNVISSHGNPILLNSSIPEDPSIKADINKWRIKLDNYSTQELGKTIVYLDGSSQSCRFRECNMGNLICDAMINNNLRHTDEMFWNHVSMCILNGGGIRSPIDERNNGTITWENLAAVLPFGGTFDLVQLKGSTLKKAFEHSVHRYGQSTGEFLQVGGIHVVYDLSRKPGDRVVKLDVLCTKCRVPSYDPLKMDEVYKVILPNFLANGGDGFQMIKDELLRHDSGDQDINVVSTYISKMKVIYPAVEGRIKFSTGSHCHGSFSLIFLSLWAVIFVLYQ

h-TNAP = target: T3, h-TNAP (Homo sapiens, UniProt P05186); assay: h-TNAP inhibition assay; assay type: biochemical; conditions: for inhibition at 100 µM: read-out: inhibition% h-TNAP
T3 sequence (P05186 18-524): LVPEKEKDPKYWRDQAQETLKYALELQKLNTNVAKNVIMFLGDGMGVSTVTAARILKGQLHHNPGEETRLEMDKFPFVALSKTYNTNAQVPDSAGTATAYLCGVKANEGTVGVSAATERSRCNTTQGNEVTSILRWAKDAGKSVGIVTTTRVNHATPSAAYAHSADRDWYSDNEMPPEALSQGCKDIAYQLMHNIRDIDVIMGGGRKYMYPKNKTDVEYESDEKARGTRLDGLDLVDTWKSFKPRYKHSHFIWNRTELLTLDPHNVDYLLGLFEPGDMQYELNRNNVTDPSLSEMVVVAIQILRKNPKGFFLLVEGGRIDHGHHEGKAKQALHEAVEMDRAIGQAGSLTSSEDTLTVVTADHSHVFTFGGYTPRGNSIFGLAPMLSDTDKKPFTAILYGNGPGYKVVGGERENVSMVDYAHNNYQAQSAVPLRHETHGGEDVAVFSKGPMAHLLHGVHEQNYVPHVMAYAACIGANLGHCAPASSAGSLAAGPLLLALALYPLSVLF

h-e5′NT [3] = target: T2, h-e5′NT; assay: Enzyme kinetic studies, h-e5′NT; assay type: biochemical; conditions: Lineweaver–Burk
r-e5′NT [4] = target: T1, r-e5′NT; assay: Enzyme kinetic studies, r-e5′NT; assay type: biochemical; conditions: Lineweaver–Burk
h-ENPP3 = target: T4, h-ENPP3 (Homo sapiens, UniProt O14638); assay: h-ENPP3 inhibition assay; assay type: biochemical; conditions: for selectivity for h-ENPP3 between the two h-ENPP isozymes: h-ENPP3 versus h-ENPP1
T4 sequence (O14638 1-875): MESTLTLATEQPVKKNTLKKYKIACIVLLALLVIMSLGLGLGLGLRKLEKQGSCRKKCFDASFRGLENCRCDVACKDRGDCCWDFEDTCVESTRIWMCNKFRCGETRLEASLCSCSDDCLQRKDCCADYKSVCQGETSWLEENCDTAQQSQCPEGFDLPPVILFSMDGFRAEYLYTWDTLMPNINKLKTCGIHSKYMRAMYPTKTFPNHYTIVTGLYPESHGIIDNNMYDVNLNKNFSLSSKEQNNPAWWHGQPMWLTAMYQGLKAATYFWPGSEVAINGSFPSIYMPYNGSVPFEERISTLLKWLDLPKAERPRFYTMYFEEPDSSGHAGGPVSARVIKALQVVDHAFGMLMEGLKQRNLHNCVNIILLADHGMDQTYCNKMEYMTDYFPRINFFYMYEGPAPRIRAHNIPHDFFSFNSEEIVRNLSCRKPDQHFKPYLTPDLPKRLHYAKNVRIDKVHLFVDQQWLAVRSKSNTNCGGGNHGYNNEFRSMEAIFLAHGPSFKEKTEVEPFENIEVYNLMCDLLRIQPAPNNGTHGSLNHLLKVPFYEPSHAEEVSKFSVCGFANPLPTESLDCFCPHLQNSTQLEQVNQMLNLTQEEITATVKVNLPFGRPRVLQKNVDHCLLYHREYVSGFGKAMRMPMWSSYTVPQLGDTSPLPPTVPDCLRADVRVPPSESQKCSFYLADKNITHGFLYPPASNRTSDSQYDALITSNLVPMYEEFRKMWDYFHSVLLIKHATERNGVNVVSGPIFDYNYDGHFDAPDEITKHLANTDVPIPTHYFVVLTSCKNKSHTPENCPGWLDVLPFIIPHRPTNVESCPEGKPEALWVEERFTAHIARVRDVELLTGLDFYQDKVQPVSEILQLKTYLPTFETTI

h-ENPP1 = target: T5, h-ENPP1 (Homo sapiens, UniProt P22413); assay: h-ENPP1 inhibition assay; assay type: biochemical; conditions: read-out: inhibition% h-ENPP1
T5 sequence (P22413 1-925): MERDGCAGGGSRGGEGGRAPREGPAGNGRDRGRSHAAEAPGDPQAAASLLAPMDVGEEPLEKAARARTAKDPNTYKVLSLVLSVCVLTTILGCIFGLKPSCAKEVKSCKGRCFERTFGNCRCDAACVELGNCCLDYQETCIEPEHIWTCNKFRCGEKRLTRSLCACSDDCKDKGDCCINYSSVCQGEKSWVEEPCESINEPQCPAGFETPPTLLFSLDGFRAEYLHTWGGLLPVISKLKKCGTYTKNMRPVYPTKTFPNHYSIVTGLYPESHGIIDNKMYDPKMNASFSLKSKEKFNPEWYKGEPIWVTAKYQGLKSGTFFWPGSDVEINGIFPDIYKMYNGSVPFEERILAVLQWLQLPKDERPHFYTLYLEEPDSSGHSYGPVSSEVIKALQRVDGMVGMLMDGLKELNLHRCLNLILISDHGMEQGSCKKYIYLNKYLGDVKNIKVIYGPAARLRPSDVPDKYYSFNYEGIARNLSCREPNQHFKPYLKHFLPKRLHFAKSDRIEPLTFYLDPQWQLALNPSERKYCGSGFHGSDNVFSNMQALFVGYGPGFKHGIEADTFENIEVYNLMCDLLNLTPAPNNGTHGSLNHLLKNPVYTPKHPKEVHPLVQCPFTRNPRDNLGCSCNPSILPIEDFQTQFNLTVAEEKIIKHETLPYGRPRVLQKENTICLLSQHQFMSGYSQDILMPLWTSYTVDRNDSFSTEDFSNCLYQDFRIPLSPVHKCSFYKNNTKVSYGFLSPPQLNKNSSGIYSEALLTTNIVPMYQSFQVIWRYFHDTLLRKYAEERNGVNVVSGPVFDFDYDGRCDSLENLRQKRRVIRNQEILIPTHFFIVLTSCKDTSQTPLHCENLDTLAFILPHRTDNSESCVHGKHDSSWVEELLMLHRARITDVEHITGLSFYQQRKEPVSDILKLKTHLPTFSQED

Structure (SMILES)	inhibition at 100 µM (r-e5′NT [1]) [%]	IC50 (h-e5′NT [2]) [nM]	IC50 (h-TNAP) [nM]	IC50 (r-e5′NT [1]) [nM]	also measured
COc1cccc(OS(=O)(=O)c2ccc(C)cc2)c1 [3-methoxyphenyl p-toluenesulfonate]					IC50 (MCF-7): 89800 nM
O=C(Cc1c[nH]c2ccccc12)Nc1ccccc1OS(=O)(=O)c1ccccc1Cl [5a, 2-(2-(1H-indol-3-yl)acetamido)phenyl 2-chlorobenzenesulfonate]	22.7	1190 ± 20	1600 ± 110		
O=C(Cc1c[nH]c2ccccc12)Nc1ccccc1OS(=O)(=O)Cc1ccccc1 [5b, 2-(2-(1H-indol-3-yl)acetamido)phenyl phenylmethanesulfonate]	38.5	13200 ± 3140			inhibition at 100 µM (h-TNAP): 42.4%
O=C(Cc1c[nH]c2ccccc12)Nc1ccccc1OS(=O)(=O)c1ccc(F)cc1 [5c, 2-(2-(1H-indol-3-yl)acetamido)phenyl 4-fluorobenzenesulfonate]		370 ± 30	1480 ± 20	1660 ± 40	Mode of inhibition h-e5′NT (h-e5′NT [3]): un-competitive
COc1ccc(S(=O)(=O)Oc2ccccc2NC(=O)Cc2c[nH]c3ccccc23)cc1 [5d, 2-(2-(1H-indol-3-yl)acetamido)phenyl 4-methoxy-benzenesulfonate]		3460 ± 120	5180 ± 460	1770 ± 120	
O=C(Cc1c[nH]c2ccccc12)Nc1ccccc1OS(=O)(=O)c1ccc(-c2ccccc2)cc1 [5e, 2-(2-(1H-indol-3-yl)acetamido)phenyl [1,1′-biphenyl]-4-sulfonate]		560 ± 16	1060 ± 30	980 ± 20	
O=C(Cc1c[nH]c2ccccc12)Nc1ccccc1OS(=O)(=O)c1ccc(Br)cc1 [5f, 2-(2-(1H-indol-3-yl)acetamido)phenyl 4-bromobenzenesulfonate]		690 ± 1	6580 ± 250	1640 ± 20	
Cc1ccc(S(=O)(=O)Oc2ccccc2NC(=O)Cc2c[nH]c3ccccc23)cc1Cl [5g, 2-(2-(1H-indol-3-yl)acetamido)phenyl 3-chloro-4-methylbenzenesulfonate]		4410 ± 190	590 ± 80	1850 ± 110	
O=C(Cc1c[nH]c2ccccc12)Nc1ccccc1OS(=O)(=O)c1ccc(I)cc1 [5i, 2-(2-(1H-indol-3-yl)acetamido)phenyl 4-iodobenzenesulfonate]		4850 ± 550	2270 ± 240	810 ± 50	Mode of inhibition r-e5′NT (r-e5′NT [4]): competitive
O=C(Cc1c[nH]c2ccccc12)Nc1ccccc1OS(=O)(=O)C(F)(F)F [5j, 2-(2-(1H-indol-3-yl)acetamido)phenyl trifluoromethanesulfonate]		890 ± 40	1680 ± 70	5120 ± 610	
CC(C)S(=O)(=O)Oc1ccccc1NC(=O)Cc1c[nH]c2ccccc12 [5k, 2-(2-(1H-indol-3-yl)acetamido)phenyl propane-2-sulfonate]	28.6				inhibition at 100 µM (h-e5′NT [2]): 37.5%; inhibition at 100 µM (h-TNAP): 31.8%
O=C(Cc1c[nH]c2ccccc12)Nc1ccccc1OS(=O)(=O)c1ccc(Cl)cc1 [5l, 2-(2-(1H-indol-3-yl)acetamido)phenyl 4-chlorobenzenesulfonate]		430 ± 30	1690 ± 180	5670 ± 110	
O=C(Cc1c[nH]c2ccccc12)Nc1ccccc1OS(=O)(=O)c1cccc2cccnc12 [5m, 2-(2-(1H-indol-3-yl)acetamido)phenyl quinoline-8-sulfonate]	30	6530 ± 670	1300 ± 380		
O=C(Cc1c[nH]c2ccccc12)Nc1ccccc1OS(=O)(=O)c1cccs1 [5n, 2-(2-(1H-indol-3-yl)acetamido)phenyl thiophene-2-sulfonate]	46.6				IC50 (h-ENPP3): 2550 ± 70 nM; selectivity for h-ENPP3 between the two h-ENPP isozymes (h-ENPP3): more effective and selective for h-ENPP3; inhibition at 100 µM (h-e5′NT [2]): 44.7%; inhibition at 100 µM (h-TNAP): 28.9%; inhibition at 100 µM (h-ENPP1): 38%
Cc1ccc(S(=O)(=O)Oc2ccccc2NC(=O)Cc2c[nH]c3ccccc23)cc1 [5o, 2-(2-(1H-indol-3-yl)acetamido)phenyl 4-methylbenzenesulfonate]		3210 ± 830	3370 ± 50	4860 ± 40	IC50 (h-ENPP3): 2670 ± 460 nM; selectivity for h-ENPP3 between the two h-ENPP isozymes (h-ENPP3): more effective and selective for h-ENPP3; inhibition at 100 µM (h-ENPP1): 28.3%
COc1ccc(OS(=O)(=O)c2ccc(C)cc2)cc1 [p-methoxyphenyl p-toluenesulfonate]					IC50 (MCF-7): 126000 nM
